The source made the active and inactive calls.
Key:
[1] = reduction of Shn3 3'UTR-driven luciferase in osteoblasts – cell-based, Clone20 osteoblasts, firefly luciferase, cherry-picked, dose response (AID 624132); type: functional;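 also: firefly luciferase luminescence from reporter carrying the Shn3 3'UTR in osteoblasts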
[2] = NIH3T3 cell viability loss – ATP luminescence, mouse fibroblasts, counter-screen, dose response (AID 2010); type: functional, cell-based;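 also: cells exposed to compound for about 90 hours before reading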
[3] = Trypanosoma cruzi growth suppression in host cells – NIH3T3 host cells, beta-gal luminescence, confirmation (AID 2044); type: functional, cell-based;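 also: intracellular parasites grown in NIH/3T3 mouse fibroblasts as host cells; luminescent beta-galactosidase reporter signal from transgenic T. cruzi replicating inside host cells; inhibitors lower the luminescence signal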
[4] = loss of viability in HepG2 cells – cell-based, CellTiter-Glo, cherry-picked, cytotoxicity control for Shn3 inhibitor project, dose response (AID 624134); type: functional
Protein Wnt-3a = Protein Wnt-3a (Mus musculus, UniProt P27467); experiment: antagonism of Wnt3a pathway luciferase reporter – Wnt-LIGHT cells, luminescence, selectivity assay for Gli-SUFU antagonist project, dose response (AID 651570); type: functional; conditions: read-out: IC50_Mean;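 also: Wnt-LIGHT reporter cells stimulated with conditioned medium from Wnt3a-producing cells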
[5] = non-specific 3'UTR reporter inhibition in Clone20-Shn3RL – cell-based, Renilla luciferase, cherry-picked, counter-screen for Shn3 inhibitor project, dose response (AID 624133); type: functional
Troponin, cardiac muscle = Troponin, cardiac muscle (Homo sapiens, UniProt P19429+P45379+P63316); experiment: Fluorescence-based biochemical high throughput dose response assay for activators of the calcium sensitivity of cardiac Regulated Thin Filaments (RTF). [Related pubchem assays (depositor defined):AID493008, AID493018, AID504382, AID504383]; type: protein-complex assay
[6] = target: T1, Heat shock factor protein 1 (Mus musculus, UniProt P38532); experiment: enhancement of HSF1-driven luciferase signal – cell-based, NIH3T3, luminescence, dose retest, confirmation (AID 435004); type: functional;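 also: stress induced by proteasome inhibitor MG132 added 30 min after compound; luciferase reporter driven by HSF1 response element in NIH3T3 cells; actives raise luminescence as potentiators of the MG132 stress response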
T1 sequence (P38532 whole entry): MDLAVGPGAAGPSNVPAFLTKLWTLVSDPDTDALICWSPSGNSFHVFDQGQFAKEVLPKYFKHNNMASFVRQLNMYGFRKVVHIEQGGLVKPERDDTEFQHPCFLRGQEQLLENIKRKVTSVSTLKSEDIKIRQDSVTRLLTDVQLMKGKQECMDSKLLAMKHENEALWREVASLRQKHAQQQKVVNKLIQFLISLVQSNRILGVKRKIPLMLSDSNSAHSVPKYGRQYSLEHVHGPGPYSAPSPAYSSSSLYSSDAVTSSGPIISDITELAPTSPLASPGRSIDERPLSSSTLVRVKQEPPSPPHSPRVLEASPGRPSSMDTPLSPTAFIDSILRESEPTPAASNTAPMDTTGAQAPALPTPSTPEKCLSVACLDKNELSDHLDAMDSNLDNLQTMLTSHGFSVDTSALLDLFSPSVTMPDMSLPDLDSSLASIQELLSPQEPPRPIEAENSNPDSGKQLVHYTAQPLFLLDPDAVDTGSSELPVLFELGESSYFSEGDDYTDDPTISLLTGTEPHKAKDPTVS

Phospholipase A2 = Phospholipase A2 (Homo sapiens, UniProt P04054); type: functional;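 also: confirmatory dose-response counterscreen on phospholipase A2, testing hits that came from an ultra-high-throughput screen for ATG4B inhibitors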
Cysteine protease ATG4B = target: T2, Cysteine protease ATG4B (Homo sapiens, UniProt Q9Y4P1); type: functional;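 also: Fluorescence-based dose-response confirmation assay measuring inhibition of ATG4B activity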
T2 sequence (Q9Y4P1 whole entry): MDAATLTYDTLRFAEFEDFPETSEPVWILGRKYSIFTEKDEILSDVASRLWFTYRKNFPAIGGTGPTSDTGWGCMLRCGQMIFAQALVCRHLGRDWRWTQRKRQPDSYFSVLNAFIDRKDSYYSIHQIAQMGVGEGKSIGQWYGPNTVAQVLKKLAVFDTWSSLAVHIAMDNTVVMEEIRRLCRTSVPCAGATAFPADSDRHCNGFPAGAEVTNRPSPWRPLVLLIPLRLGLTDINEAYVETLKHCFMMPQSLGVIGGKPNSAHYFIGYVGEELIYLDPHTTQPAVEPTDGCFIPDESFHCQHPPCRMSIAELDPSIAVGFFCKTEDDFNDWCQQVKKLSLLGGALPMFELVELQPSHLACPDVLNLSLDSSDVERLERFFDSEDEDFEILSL

[7] = Luminescence Cell-Based Dose Retest to Confirm Inhibitors of Cancer Stem Cells. [Related pubchem assays (depositor defined):AID2717, AID2721]; type: functional; conditions: Homo sapiens
[8] = target: Glucose-6-phosphate 1-dehydrogenase (Homo sapiens, UniProt P11413); experiment: inhibition of Homo sapiens G6PD, dose series – biochemical, fluorescence, selectivity assay for P. falciparum G6PD inhibitor project, dose response (AID 504792); type: functional
[9] = target: T3, High affinity choline transporter 1 (Homo sapiens, UniProt Q9GZV3); experiment: human choline transporter blockers, potency – cell-based, 5-point CRC, membrane potential dye, dose response (AID 504840); type: functional
T3 sequence (Q9GZV3 whole entry): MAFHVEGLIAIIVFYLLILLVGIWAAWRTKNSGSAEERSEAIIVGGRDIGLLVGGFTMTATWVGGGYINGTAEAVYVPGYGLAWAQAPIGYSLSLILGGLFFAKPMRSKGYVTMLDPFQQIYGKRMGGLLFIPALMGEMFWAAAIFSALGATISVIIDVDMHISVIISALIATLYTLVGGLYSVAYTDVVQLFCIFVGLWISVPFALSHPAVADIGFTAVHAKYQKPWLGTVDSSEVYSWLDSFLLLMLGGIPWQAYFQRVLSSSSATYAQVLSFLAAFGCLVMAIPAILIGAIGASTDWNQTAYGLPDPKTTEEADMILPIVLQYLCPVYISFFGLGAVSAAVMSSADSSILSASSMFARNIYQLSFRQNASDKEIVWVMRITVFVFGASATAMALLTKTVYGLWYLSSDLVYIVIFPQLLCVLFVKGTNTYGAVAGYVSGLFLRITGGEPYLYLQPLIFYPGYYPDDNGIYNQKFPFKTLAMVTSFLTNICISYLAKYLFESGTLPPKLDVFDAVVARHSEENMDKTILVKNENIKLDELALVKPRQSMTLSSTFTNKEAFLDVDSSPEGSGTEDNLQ

INS1 = experiment: INS-1E survival protection against cytokine death – cell-based, luminescence, retest, dose response (AID 449756); type: functional; conditions: Rattus norvegicus;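 also: cell death triggered by IL-1 beta plus TNF-alpha plus IFN-gamma mixture; protective hits raise ATP signal compared with cytokine alone wells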
[10] = target: T4, Alkaline phosphatase, tissue-nonspecific isozyme (Homo sapiens, UniProt P05186); experiment: potency against alkaline phosphatase TNAP – biochemical, luminescent, dose response, SAR follow-up (AID 1056)
T4 sequence (P05186 whole entry): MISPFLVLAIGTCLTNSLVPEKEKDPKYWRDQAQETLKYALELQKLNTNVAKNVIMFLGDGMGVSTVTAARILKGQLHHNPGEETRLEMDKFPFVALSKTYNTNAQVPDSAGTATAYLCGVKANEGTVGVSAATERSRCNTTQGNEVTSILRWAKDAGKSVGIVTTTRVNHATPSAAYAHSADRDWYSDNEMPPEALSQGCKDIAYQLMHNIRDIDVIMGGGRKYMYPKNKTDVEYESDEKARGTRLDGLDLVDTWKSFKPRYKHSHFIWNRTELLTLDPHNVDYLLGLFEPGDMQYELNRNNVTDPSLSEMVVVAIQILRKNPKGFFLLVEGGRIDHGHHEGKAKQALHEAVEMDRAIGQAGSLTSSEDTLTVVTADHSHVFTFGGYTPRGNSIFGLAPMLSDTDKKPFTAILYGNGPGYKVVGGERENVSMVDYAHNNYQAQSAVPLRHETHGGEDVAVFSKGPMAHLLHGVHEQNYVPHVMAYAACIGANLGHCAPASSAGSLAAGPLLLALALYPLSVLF

[11] = target: Glyceraldehyde-3-phosphate dehydrogenase (Homo sapiens, UniProt P04406)
Cytochrome P450 3A4 = Cytochrome P450 3A4 (Homo sapiens, UniProt P08684);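 also: CYP3A4 tested as one member of a cytochrome P450 panel screen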
[12] = target: FAD-linked sulfhydryl oxidase ALR (Homo sapiens, UniProt P55789); experiment: ALR-catalysed DTT oxidation blockers – biochemical, H2O2 detection, luminescence, cherry-pick, dose response (AID 493248)
Cytochrome P450 2D6 = Cytochrome P450 2D6 (Homo sapiens, UniProt P10635);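 also: CYP2D6 member of a cytochrome P450 panel assay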
Cytochrome P450 1A2 = target: T5, Cytochrome P450 1A2 (Homo sapiens, UniProt P05177);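 also: PubChem cytochrome P450 panel assay, CYP1A2 panel member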
T5 sequence (P05177 whole entry): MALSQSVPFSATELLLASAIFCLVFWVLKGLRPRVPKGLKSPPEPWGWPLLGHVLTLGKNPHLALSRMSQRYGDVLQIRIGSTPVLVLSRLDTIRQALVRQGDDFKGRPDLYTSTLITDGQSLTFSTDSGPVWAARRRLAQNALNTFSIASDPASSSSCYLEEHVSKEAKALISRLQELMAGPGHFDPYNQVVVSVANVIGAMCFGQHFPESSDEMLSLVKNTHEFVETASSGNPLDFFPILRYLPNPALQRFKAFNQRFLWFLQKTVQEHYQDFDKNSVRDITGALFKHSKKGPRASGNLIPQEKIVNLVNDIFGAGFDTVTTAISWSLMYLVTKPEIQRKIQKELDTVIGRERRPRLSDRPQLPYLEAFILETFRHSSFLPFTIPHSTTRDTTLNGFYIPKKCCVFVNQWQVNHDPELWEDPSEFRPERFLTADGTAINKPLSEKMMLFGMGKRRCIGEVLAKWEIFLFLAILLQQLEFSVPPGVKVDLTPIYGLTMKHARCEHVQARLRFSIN

HEK293 = experiment: EBV LMP1 TES2 canonical NF-kB signalling blockers – cell-based, HEK293, luciferase, cherry-pick, dose response (AID 588343); type: functional; conditions: Homo sapiens
Cytochrome P450 2C19 = Cytochrome P450 2C19 (Homo sapiens, UniProt P33261); experiment: Cytochrome panel assay with activity outcomes. Panel member name: p450-cyp2c19 Compounds with AC50 equal or less than 10 uM are considered active; type: functional; conditions: read-out: AC50
Cytochrome P450 2C9 = Cytochrome P450 2C9 (Homo sapiens, UniProt P11712)
[13] = viability of uninfected HEp-2 cells – cell-based, HTS, cytotoxicity control for RSV inhibitor project, dose response (AID 2410); type: functional; conditions: human respiratory syncytial virus

Sequence of Protein Wnt-3a (P27467 whole entry): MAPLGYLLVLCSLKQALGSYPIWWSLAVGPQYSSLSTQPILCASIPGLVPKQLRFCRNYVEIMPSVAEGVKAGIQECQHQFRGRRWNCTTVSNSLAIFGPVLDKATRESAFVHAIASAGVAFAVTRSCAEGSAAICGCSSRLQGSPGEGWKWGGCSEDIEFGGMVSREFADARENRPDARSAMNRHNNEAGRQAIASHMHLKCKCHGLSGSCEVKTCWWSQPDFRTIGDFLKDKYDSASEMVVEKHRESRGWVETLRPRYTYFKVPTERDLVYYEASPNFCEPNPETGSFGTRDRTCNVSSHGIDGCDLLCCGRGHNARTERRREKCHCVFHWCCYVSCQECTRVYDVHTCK
Sequence of Cytochrome P450 3A4 (P08684 whole entry): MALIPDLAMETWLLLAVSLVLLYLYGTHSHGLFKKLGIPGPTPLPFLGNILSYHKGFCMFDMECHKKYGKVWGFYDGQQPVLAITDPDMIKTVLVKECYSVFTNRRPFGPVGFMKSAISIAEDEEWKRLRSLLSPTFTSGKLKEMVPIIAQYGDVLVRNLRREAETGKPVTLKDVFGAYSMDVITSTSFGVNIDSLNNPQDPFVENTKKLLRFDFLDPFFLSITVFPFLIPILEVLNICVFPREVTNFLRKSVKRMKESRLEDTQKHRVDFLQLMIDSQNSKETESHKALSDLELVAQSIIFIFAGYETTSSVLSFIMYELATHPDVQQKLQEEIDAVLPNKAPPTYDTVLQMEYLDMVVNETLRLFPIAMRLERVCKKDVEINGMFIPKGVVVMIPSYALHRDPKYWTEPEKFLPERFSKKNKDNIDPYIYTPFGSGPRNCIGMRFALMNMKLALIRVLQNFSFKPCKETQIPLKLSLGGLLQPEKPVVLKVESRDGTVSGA
Sequence of Glucose-6-phosphate 1-dehydrogenase (P11413 whole entry): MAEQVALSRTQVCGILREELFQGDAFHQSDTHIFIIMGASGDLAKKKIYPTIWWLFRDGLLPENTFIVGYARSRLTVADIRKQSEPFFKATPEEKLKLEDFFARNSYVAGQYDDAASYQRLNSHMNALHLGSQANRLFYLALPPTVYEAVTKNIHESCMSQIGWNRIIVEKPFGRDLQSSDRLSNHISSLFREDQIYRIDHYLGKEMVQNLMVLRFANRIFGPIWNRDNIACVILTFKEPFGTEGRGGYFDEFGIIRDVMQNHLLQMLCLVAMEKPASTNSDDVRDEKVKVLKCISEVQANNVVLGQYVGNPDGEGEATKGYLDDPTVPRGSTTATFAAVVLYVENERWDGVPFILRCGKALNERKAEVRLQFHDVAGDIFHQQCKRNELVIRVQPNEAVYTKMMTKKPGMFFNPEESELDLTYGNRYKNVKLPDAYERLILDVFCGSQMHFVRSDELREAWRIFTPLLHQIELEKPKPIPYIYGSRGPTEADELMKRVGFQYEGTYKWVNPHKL
Sequence of Phospholipase A2 (P04054 whole entry): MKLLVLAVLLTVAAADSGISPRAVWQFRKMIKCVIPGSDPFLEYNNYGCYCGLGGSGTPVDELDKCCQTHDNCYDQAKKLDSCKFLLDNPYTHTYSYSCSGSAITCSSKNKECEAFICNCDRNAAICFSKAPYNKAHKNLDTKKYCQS
Sequence of Cytochrome P450 2D6 (P10635 whole entry): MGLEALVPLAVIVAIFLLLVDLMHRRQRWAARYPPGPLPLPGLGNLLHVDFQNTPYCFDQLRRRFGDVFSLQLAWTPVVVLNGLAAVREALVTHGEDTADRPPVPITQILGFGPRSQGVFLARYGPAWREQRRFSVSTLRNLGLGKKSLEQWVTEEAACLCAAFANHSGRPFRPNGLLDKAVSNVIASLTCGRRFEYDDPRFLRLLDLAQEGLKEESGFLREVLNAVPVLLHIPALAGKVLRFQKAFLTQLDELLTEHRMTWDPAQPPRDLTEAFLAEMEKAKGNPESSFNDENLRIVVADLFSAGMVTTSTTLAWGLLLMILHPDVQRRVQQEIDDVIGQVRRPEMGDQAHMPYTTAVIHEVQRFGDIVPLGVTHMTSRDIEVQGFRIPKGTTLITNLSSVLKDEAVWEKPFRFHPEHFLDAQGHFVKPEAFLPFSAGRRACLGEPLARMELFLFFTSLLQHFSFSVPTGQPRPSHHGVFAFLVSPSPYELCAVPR
Sequence of Glyceraldehyde-3-phosphate dehydrogenase (P04406 whole entry): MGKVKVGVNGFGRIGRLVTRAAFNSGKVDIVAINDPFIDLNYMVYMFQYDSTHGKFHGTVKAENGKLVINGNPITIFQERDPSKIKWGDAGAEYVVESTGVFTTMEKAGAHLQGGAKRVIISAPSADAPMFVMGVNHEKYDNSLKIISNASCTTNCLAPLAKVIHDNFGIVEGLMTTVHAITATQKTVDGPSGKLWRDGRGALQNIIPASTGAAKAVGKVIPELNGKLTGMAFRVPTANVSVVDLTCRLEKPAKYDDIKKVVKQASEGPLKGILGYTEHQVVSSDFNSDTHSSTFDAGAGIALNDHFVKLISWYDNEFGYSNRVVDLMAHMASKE
Sequence of Cytochrome P450 2C9 (P11712 whole entry): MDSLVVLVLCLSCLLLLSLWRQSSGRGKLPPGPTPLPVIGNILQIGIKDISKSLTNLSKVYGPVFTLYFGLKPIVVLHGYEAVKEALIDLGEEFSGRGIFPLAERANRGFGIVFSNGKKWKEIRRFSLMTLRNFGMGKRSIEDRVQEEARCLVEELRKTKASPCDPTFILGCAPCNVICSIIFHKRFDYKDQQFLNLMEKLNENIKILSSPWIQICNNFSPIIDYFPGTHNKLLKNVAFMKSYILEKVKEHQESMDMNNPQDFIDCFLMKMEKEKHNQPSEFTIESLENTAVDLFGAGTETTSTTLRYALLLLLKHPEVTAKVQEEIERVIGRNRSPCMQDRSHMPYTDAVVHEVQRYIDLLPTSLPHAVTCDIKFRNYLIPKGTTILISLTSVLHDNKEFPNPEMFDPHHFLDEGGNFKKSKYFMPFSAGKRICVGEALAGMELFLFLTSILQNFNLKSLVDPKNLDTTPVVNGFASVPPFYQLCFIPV
Sequence of FAD-linked sulfhydryl oxidase ALR (P55789 whole entry): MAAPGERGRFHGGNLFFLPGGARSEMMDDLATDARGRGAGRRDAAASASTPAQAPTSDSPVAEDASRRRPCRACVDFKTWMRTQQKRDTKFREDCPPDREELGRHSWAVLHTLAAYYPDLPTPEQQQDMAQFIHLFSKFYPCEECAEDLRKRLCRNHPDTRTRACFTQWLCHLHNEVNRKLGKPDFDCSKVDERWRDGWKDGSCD
Sequence of Cytochrome P450 2C19 (P33261 whole entry): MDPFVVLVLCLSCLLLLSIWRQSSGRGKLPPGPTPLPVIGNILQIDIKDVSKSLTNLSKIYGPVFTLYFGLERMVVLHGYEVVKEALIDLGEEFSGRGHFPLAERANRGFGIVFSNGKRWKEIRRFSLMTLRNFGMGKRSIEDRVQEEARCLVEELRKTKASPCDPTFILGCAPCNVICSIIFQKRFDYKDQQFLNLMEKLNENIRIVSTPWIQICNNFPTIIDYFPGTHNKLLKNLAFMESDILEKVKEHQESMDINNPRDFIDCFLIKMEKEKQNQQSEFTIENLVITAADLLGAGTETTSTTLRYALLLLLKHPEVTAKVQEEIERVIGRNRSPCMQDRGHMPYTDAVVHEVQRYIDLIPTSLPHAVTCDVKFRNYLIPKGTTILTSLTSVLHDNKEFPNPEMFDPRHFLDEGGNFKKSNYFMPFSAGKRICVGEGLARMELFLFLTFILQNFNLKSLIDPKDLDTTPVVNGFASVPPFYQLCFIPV

SMILES: CC(C)(C)c1ccc(CN2C3=NCCCN3c3ccccc32)cc1
- AC50 [1]: 0.836 µM (active)
- EC50 [2]: > 60 µM (not active)
- EC50 [3]: 0.387 µM (active)
- AC50 [4]: 21.8 µM (active)
- IC50 (Protein Wnt-3a): 2.94 µM (active)
- AC50 [5]: 0.978 µM (active)

SMILES: Cn1nc(NC(=O)C2CCC2C(=O)O)c2c(F)cccc21 (stereo not drawn)
- EC50 (Troponin, cardiac muscle): > 71.5 µM (inactive)

SMILES: COC(=O)C(C)N(C(=O)c1ccc(C(=O)c2ccccc2)cc1)c1c(C)cccc1C (stereo not drawn)
- EC50 [6]: > 260 µM (inactive)
- IC50 (Phospholipase A2): 8.13 µM (active)
- IC50 (Cysteine protease ATG4B): 9.78 µM (active)

SMILES: Cc1ccc(/C=C/C(=O)NCC2COc3ccccc3O2)o1 (stereo not drawn)
- AC50 [7]: 33.1 µM (active)
- IC50 [8]: > 80 µM (inactive)

SMILES: Cc1ccc(-c2csc(NC(=O)c3ccccc3F)c2C(=O)O)cc1
- IC50 [8]: > 80 µM (inactive)
- IC50 [9]: 11.5 µM (active)

SMILES: Cc1ccc(-c2c(C(=O)N/N=C/c3ccc(C)o3)nnn2-c2nonc2N)cc1
- IC50 [8]: 12.5 µM (active)

SMILES: O=C(c1cnc(N2CCN(c3ccccn3)CC2)c2ccccc12)N1CCN(c2cccc(Cl)c2)CC1
- AC50 (INS1): 6.14 µM (active)
- AC50 [1]: 1.99 µM (active)
- AC50 [4]: 59.9 µM (active)
- IC50 (Protein Wnt-3a): 7.02 µM (active)
- AC50 [5]: 3.68 µM (active)

SMILES: COC(=O)c1ccc(C(=O)N2CCCC(Nc3ccc(C(C)C)cc3)C2)nc1 (stereo not drawn)
- IC50 (Phospholipase A2): 12.3 µM (active)
- IC50 (Cysteine protease ATG4B): 17.9 µM (active)

SMILES: COc1cccc(/C=C/c2ccncc2)c1OC
- IC50 (Protein Wnt-3a): 1.7 µM (active)

SMILES: COc1c(O)cccc1-c1nnn(CCC(=O)OCC(=O)c2ccccc2)n1
- EC50 (Troponin, cardiac muscle): > 71.5 µM (inactive)

SMILES: COc1ccc(OC)c(NCc2cnc3ccccc3c2)c1
- IC50 [10]: > 100 µM (inactive)
- IC50 [11]: > 100 µM (not active)

SMILES: O=C(c1ccco1)N1CCC2(CC1)CCN(c1ccc(-c3ccccc3)cc1)CC2
- AC50 (Cytochrome P450 3A4): inconclusive

SMILES: CCN(CC)c1ccc(/C=C2\SC(=N)NC2=O)cc1
- EC50 (Troponin, cardiac muscle): 6.01 µM (active)
- AC50 [12]: 2.74 µM (active)

SMILES: COC(=O)C(Cc1ccc(OC(=O)c2ccc(Cl)cc2)cc1)N1Cc2ccccc2C1=O (stereo not drawn)
- AC50 (Cytochrome P450 2D6): 5.01 µM (inconclusive)
- AC50 (Cytochrome P450 3A4): inconclusive
- AC50 (Cytochrome P450 1A2): 31.6 µM (inconclusive)

SMILES: CCN1CCN(Cc2ccc(NC(=O)c3ccc(C)c(NC(=O)c4nccnc4N)c3)cc2C(F)(F)F)CC1
- AC50 (HEK293): 0.528 µM (active)

SMILES: COc1ccc(C)cc1S(=O)(=O)Nc1ccc2ccccc2c1
- IC50 [10]: > 100 µM (inactive)
- IC50 [11]: > 100 µM (not active)

SMILES: Cc1ccc(C(=O)O/N=C2\CCCc3ccccc32)cc1
- IC50 (Phospholipase A2): 2.83 µM (active)
- IC50 (Cysteine protease ATG4B): 8.65 µM (active)

SMILES: O=C1CCC[C@@H]2[C@@H](Cc3ccccc3)[C@H](N3CCN(c4ccccc4)CC3)C[C@@H]3CCN1[C@@H]32
- IC50 [8]: > 80 µM (inactive)

SMILES: O=C(CCCN1CCN(c2ccccn2)CC1)c1ccc(F)cc1 [AZAPERONE]
- AC50 (Cytochrome P450 2C19): 15.8 µM (inconclusive)
- AC50 (Cytochrome P450 2D6): 7.94 µM (inconclusive)
- AC50 (Cytochrome P450 3A4): inconclusive
- AC50 (Cytochrome P450 1A2): 15.8 µM (inconclusive)
- AC50 (Cytochrome P450 2C9): 12.6 µM (inconclusive)

SMILES: Cc1ccsc1-c1nc(CSCC(=O)N2CCN(c3ccccc3)CC2)c(C)o1
- AC50 (HEK293): 225 µM (active)

SMILES: CN1C(=O)/C(=C/C=C2\SCCN2C)OC1=S
- EC50 (Troponin, cardiac muscle): 7 µM (active)

SMILES: COc1ccc2cc(-c3cc(C(=O)O)c4ccccc4n3)ccc2c1
- IC50 (cells): 40.9 µM (active)
- CC50 [13]: 22.5 µM (active)
- AC50 (HEK293): 1.05 µM (active)

Reference: ChEMBL document CHEMBL1201862, “PubChem BioAssay data set” (2004)
